Results on three substances are retold here after patent US20250152720A1, “NEW CARBOHYDRATE DERIVATIVES AS MIMETICS OF BLOOD GROUP A AND B ANTIGENS” (REMAB THERAPEUTICS SL, priority 2022, published 2025).

For experiment [1], the system named is purified human anti-B antibodies (IgG, IgM). The note with it: IgG 0,095 ug/mL and IgM 0.045 ug/mL; increasing glycoconjugate concentrations (0-400 μg/mL); versus Comparative-1; FIG. 11.
Description: (§1) ELISA: Maxisorp 96-well flat-bottom plates (Thermo Scientific, Waltham, MA, US) were coated for 18 hours at 4° C. with 50 μL/well of 10 μg/mL of the following PAA-glycoconjugates (as disclosed above in Table 3): 1 (B natural type2) and 5 (A natural type2); in coating buffer (0.05 M carbonate-bicarbonate, pH 9.6). Wells coated only with 50 μL/well of 10 μg/mL of PAA were considered the background of each sample assessed. After coating, the plates were washed three times with 200 μL/well of 0.1% (v/v) PBST using an autowasher and blocked for 1 hour at 4° C. with 100 μL/well of 0.1% (v/v) PBST+1% (w/v) BSA. Washing steps were repeated.
The inhibition samples were prepared in separate tubes using a fixed concentration of anti-A or anti-B antibodies, and an increasing concentration of the following polylysine glycoconjugate inhibitors, prepared in Example 4 (0-400 μg/mL): • Comparative-1 (comprising natural B type-II antigen) • Example 4.1 (comprising analogue of Example 1.1) • Comparative-2 (comprising natural A type-II antigen) • Example 4.8 (comprising analogue of Example 1.8) […]
(§2) After washing steps, plates were incubated for 0.5 hours at 25° C. […] The reaction was stopped with 50 μL/well of 3N HCl, and the resulting absorbance was registered at 490 nm using a microplate reader.
The percentage of removal (%) was calculated referred to the baseline condition (without inhibitor compound). […]
Experiment [2] has as its system purified anti-B antibodies binding to red blood cells (Group B). Description: Flow Cytometry inhibition of binding of purified anti-B antibodies to red blood cells (Group B) (Example 6.4). The class given is cell-based, human. The note with it: anti-B 1 μg/mL. How it is done:
The capacity to inhibit the binding of purified anti-B antibodies to red blood cells (Group B), measured by Flow Cytometry was tested. The Flow Cytometry assay was performed as follows: […] Afterwards, primary antibodies with the corresponding inhibitor were added. […] The samples were then incubated for 30 minutes at 37° C. (in the dark, mild horizontal shaking 30-40 rpm). Afterwards the samples were washed twice with PBS (centrifuged at 300 g. 3 minutes), and the supernatants were removed by aspiration. Then, 50 μL of the corresponding fluorochrome secondary anti-Ig antibody (7.5 μg/mL of goat anti-human IgG Alexa Fluor 647. Jackson Immunoresearch, West Grove, PA, USA, and 20 μg/mL of goat anti-human IgM C[…], Sigma-Aldrich, St. Louis, MO, USA) diluted in PBS were added to the RBC and incubated for 35 minutes at 37° C. (in the dark). The samples were washed twice with PBS (centrifuged at 300 g, 3 minutes), and the supernatants were removed by aspiration. Finally, the cells were resuspended in filtered PBS. Cells incubated with only PBS were used as a negative control for the experiment. Cells incubated only with secondary antibodies were considered background signals. Flow Cytometry analysis was performed on a Beckman Coulter Gallios Flow Cytometry analyzer using the blue (488 nm-22 mW) and red (635 nm-25 mW) solid-state laser as exciting source. Every single FACS determination recorded about 20,000 total events. Data was analyzed with KALUZA software (Beckman Coulter, CA, USA). The inhibitory capacity was expressed as a percentage of removal referred to the baseline condition (in ordinates).

For experiment [3], the system named is purified human anti-A antibodies (IgG, IgM). The note with it: IgG 0.075 ug/mL and IgM 0.185 ug/mL; glycoconjugate at 10, 100 and 400 μg/mL; versus Comparative-2; FIG. 10.
Description: as §1
The tubes were incubated for 18 hours at 4° C. and then a convenient dilution of inhibition mix to the ELISA plate (50 μL/vell) was added and incubated for 0.5 hours at 25° C. in a rocker.
as §2
To quantify the antibody levels. […]
The percentage of removal (%) was calculated referred to the baseline condition (without inhibitor compound).

In the case of “Polyfysine DP1000 conjugate with tetrasaccharide Glcα1-3(Fucα1-2)Galβ1-4GlcNAcβ (Example 1.1) (25%) [Example 4.1]”, the “capacity to inhibit human purified anti-B antibodies (percentage of removal)” value in experiment [1] is reported as “lower capacity to inhibit human purified anti-B antibodies than the natural comparator”. Also, in experiment [2] (inhibitor 2.5 ug/mL), the “percentage of removal referred to the baseline condition, IgG” value came out at 5.64% and the “percentage of removal referred to the baseline condition, IgM” value is on record as 6.35%.
As to “Polylysine DP1000 Conjugate with Galα1-3(Fucα1-2)Galβ1-4GlcNAcβB (Type2) Tetrasaccharide [Comparative-1, reference compound]”, in experiment [2] (inhibitor 0.25 ug/mL), the “percentage of removal referred to the baseline condition, IgG” value was determined as 15.12% and the “percentage of removal referred to the baseline condition, IgM” value is reported as 26.4%.
Take “Polylysine DP1000 Conjugate with Trisaccharide GlcNAcα1-3(Fucα1-2)Galβ (Example 1.8) (25%) [Example 4-8]”: the “capacity to inhibit human purified anti-A antibodies (percentage of removal)” value in experiment [3] was “higher capacity to inhibit human purified anti-A antibodies than the comparator”.
